# Measured values: patent US20110136728A1, “METHODS OF INCREASING BONE FORMATION USING LEPTIN-RELATED PEPTIDES” (priority 2009, published 2011)
# Where “and” joins values, the source holds several entries; their conditions need not be identical. Equal entries are not always repeated. Entries after “also recorded” stand apart in the source; their conditions may differ. Non-standard residues stand in square brackets, D forms with d. Residues, ends and D or L forms follow the SMILES beside them.
# What was measured:
# [1] = system: male C57BLK/6-m db/db mice; assay: Intranasal delivery in db/db mice: body weight, food and water intake, serum glucose, insulin, osteocalcin; assay type: in vivo, mouse
# Experimental: Each bar and vertical line represents mean±SEM serum glucose level (n=6).
# FIG. 17. Effects of intranasal administration of mouse [D-Leu-4]-OB3 (1 mg/day, 14 days) on body weight gain in C57BLk/6-m db/db mice. […] Each point represents the mean±standard error of mean change in body weight for a group of six mice.
# In the present study, the effects of intranasal administration of mouse [D-Leu-4]-OB3 in Intravail® on energy balance, serum osteocalcin, and serum insulin levels in genetically obese male C57BLK/6-m db/db mice allowed food and water ad libitum were examined. […] (See FIGS. 12 and 13). […] (See FIGS. 14 and 15).
# In the present study, the effects of intranasal delivery of mouse [D-Leu-4]-OB3 in Intravail® on energy balance, glucose regulation, insulin secretion, and serum levels of osteocalcin, a specific and sensitive marker of bone formation were examined Genetically obese C57BLK/6-m db/db mice were allowed food and water ad libitum, and given either Intravail® alone or mouse [D-Leu-4]-OB3 in Intravail® for 14 days. […] Serum insulin levels in db/db mice given mouse [D-Leu-4]-OB3 were approximately 3-fold lower than those in mice receiving Intravail® alone. Mouse [D-Leu-4]-OB3 elevated serum osteocalcin in db/db mice by 28.7% over Intravail® treated control mice. […] In addition, its effects on bone turnover may also be useful in the prevention and/or reversal of at least some of the bone loss which accompanies osteoporosis, anorexia nervosa, cancer, and other wasting diseases not associated with the obesity syndrome.
# [2] = system: calorie restricted male C57BL/6J ob/ob mice; assay: Oral delivery (gavage) in calorie restricted (40%) ob/ob mice: body weight, serum glucose, serum osteocalcin; assay type: in vivo, mouse
# Experimental: (§1) Six week-old male C57BL/6J wild type and ob/ob mice were obtained from Jackson Laboratories (Bar Harbor, Me., USA). The animals were housed individually polycarbonate cages fitted with stainless steel wire lids and air filters, and supported on ventilated racks (Thoren Caging Systems, Hazelton, Pa., USA) in the Albany Medical College Animal Resources Facility. The mice were maintained at a constant temperature (24° C.) with lights on from 07:00 to 19:00, and allowed food and water ad libitum for 6 days following arrival. During the test period, mice were fed ad libitum or calorie restricted to 60% of normal. Water intake was allowed ad libitum.
# (§2) On day 1 of the study, and on each day thereafter, a water bottle containing 200 ml of water was added to each cage between 09:00 and 10:00 h. Mice fed ad libitum were given 200 g of pelleted rodent diet (Prolab Rat, Mouse, Hamster 3000, St. Louis, Mo.; 22% crude protein, 5% crude fat, 5% fiber, 6% ash, 2.5% additional minerals) between 09:00 and 10:00 h each day. The mice were weighed once daily between 09:00 and 10:00 h on an Acculab V-333 electronic balance (Cole-Parmer, Vernon Hills, Ill., USA). Calorie-restricted wild type and ob/ob mice received 60% of normal daily intake. Twenty four hours later, food and water remaining in the cages was measured to the nearest 0.1 g and 0.1 ml, respectively. To assure fasting glucose levels on days in which blood glucose was measured, food was removed from the cages between 09:00 and 10:00 h, and replaced immediately before the beginning of the dark cycle.
# (§3) Mouse [D-Leu-4]OB3 was prepared commercially as a C-terminal amide by Bachem (Torrance, Calif., USA). The peptide was dissolved in 0.3% Intravail A3® (Aegis Therapeutics, San Diego, Calif. USA) reconstituted in water, and administered by gavage once daily for 10 days at a concentration of 1 mg/200 μl immediately before the start of the dark cycle. Is has previously been shown that this is the optimum concentration of mouse [D-Leu-4]-OB3 and its related bioactive peptide amides, for regulating energy expenditure, glucose levels, and insulin sensitivity in two genetically obese mouse models (see Rozhayskaya-Arena M. et al., Endocrinology 141:2501-2517 (2000); Grasso P. et al. Regulatory Pep. 101:123-129 (2001); Grasso P. et al., Diabetes 48:2204-2209 (1999), Grasso P. et al., Endocrinology 138:1413-1418 (1997); Grasso P. et al., Regulatory Peptides 85:93-100 (1999); and Grasso P. et al., Diabetes 48:2204-2209 (1999)). Vehicle injected control mice received 200 ul of Intravail A3® only.
# (§4) Initial blood samples were drawn by snipping the end of the tail of each mouse at the beginning of the study (day 0); subsequent samples were obtained by gently removing the scab. Blood was taken 1 h before the onset of the dark period at the beginning of the study, and after 2, 4, 6, 8, and 10 days of treatment. The blood was applied to a test strip, and glucose levels were measured with a Glucometer Elite glucose meter (Bayer, Elkhart, Ind., USA).
# (§5) At the end of the study, the mice were anesthetized with isoflurane (5%) and exsanguinated by cardiac puncture. Euthanasia was confirmed by cervical dislocation. The blood was collected in sterile nonheparinized plastic centrifuge tubes and allowed to stand at room temperature for 1 h. The clotted blood was rimmed from the walls of the tubes with sterile wooden applicator sticks. Individual serum samples were prepared by centrifugation for 30 min at 2600×g in an Eppendorf 5702R, A-4-38 rotor (Eppendorf North America, Westbury, N.Y., USA). The serum samples in each experimental group (n=6) were pooled and stored frozen until assayed for osteocalcin content.
# (§6) Serum osteocalcin in the pooled samples was assayed in triplicate with a mouse osteocalcin ELISA kit obtained from Biomedical Technologies, Inc. (Stoughton, Mass., USA) according to the instructions supplied by the manufacturer. […]
# male C57BL/6J ob/ob mice = assay: Oral delivery (gavage) in ad libitum fed ob/ob mice: body weight, food and water intake, serum glucose, serum osteocalcin; assay type: in vivo, mouse
# Experimental: as §1, §2, §3, §4, §5, §6
# [3] = Observation of toxic side effects in treated animals; assay type: in vivo; conditions: treated mice or rats
# [4] = 1 mg/day, 14 days, intranasal in Intravail
# [5] = 1 mg/day, 10 days, gavage in Intravail
# [6] = ob/ob, ad libitum fed, 1 mg/day, 10 days, gavage in Intravail
# [7] = ob/ob, ad libitum fed, 10 days gavage
# [8] = ob/ob, ad libitum fed, oral delivery
structure (smiles),measurement,setting,value
CC(C)C[C@@H](NC(=O)[C@H](CO)NC(=O)[C@H](CS)NC(=O)[C@@H](N)CO)C(=O)N1CCC[C@H]1C(=O)N[C@@H](CCC(N)=O)C(=O)N[C@H](C(N)=O)[C@@H](C)O [mouse [D-Leu-4]-OB3] (H-SCS[dL]PQT-NH2; N-terminus assumed),Body weight (% of initial),[1]; [4],104.9 ± 1.4 % of initial
same,Final body weight,[1]; [4],37.0 ± 1.7 g
same,Food intake,[1]; [4],6.1 g/mouse/day and 6.1 ± 0.3 g/mouse/day
same,Serum insulin,[1]; [4],0.95 ng/mL and 0.95 ± 0.03 ng/mL
same,Serum osteocalcin,[1]; [4],470 ng/mL and 470.0 ± 20.0 ng/mL
same,Water intake,[1]; [4],21.2 ml/mouse/day and 21.2 ± 1.8 ml/mouse/day
same,reduction of serum glucose,[1]; 14 days intranasal in Intravail,61.9%
same,body weight increase over initial body weight (heavier),[1]; after 14 days intranasal in Intravail,4.9%
same,Initial serum glucose,[1]; day 0,472 ± 7.3 mg/dL
same,Initial body weight,"[1]; day 0, 1 mg/day, 14 days, intranasal in Intravail",35.0 ± 1.1 g
same,Final serum glucose,"[1]; day 14, 1 mg/day intranasal in Intravail",209 ± 89.4 mg/dL
same,Body weight (% of initial),[2]; [5],90.0 ± 0.8 % of initial
same,Final body weight,[2]; [5],30.8 ± 0.6 g
same,Serum osteocalcin,[2]; [5],290.1 ± 3.2 ng/mL
same,serum glucose compared to calorie restriction alone,[2]; 10 days gavage,normalized levels; also recorded: significantly (P<0.001) reduced serum glucose levels to levels Seen in wild type mice allowed food ad libitum
same,"serum osteocalcin, effect on decrease caused by calorie restriction",[2]; 10 days gavage,significantly elevated serum osteocalcin levels; also recorded: prevented this decrease
same,weight loss compared to calorie restriction with Intravail alone (words),[2]; 10 days gavage,did not enhance this weight loss; also recorded: essentially the same
same,elevation of serum osteocalcin,[2]; after 10 days of treatment,93.4%
same,Final serum glucose,"[2]; after 10 days, 1 mg/day gavage in Intravail",176.5 ± 32.8 mg/dL
same,Initial serum glucose,[2]; day 0,480.2 ± 36.7 mg/dL
same,Initial body weight,"[2]; day 0, 1 mg/day, 10 days, gavage in Intravail",34.2 ± 0.4 g
same,serum osteocalcin relative to wild type control mice,male C57BL/6J ob/ob mice; ob/ob mice,significantly elevated serum osteocalcin to levels higher than those seen in wild type control mice
same,Body weight (% of initial),male C57BL/6J ob/ob mice; [6],96.3 ± 0.4 % of initial
same,Final body weight,male C57BL/6J ob/ob mice; [6],34.2 ± 0.9 g
same,Serum osteocalcin,male C57BL/6J ob/ob mice; [6],300.5 ± 7.0 ng/mL
same,daily food intake compared to Intravail alone,male C57BL/6J ob/ob mice; [7],significantly (P<0.001) less
same,daily water consumption compared to Intravail treated counterparts,male C57BL/6J ob/ob mice; [7],significantly (P<0.05) less water per day
same,serum glucose after treatment,male C57BL/6J ob/ob mice; [7],"significantly (P<0.001) reduced serum glucose levels, but not to normal levels"
same,loss of initial body weight,"male C57BL/6J ob/ob mice; ob/ob, ad libitum fed, after 10 days gavage",3.7%
same,Final serum glucose,"male C57BL/6J ob/ob mice; ob/ob, ad libitum fed, after 10 days, 1 mg/day gavage in Intravail",380.5 ± 24.3 mg/dL
same,Initial serum glucose,"male C57BL/6J ob/ob mice; ob/ob, ad libitum fed, day 0",503.9 ± 19.6 mg/dL
same,Initial body weight,"male C57BL/6J ob/ob mice; ob/ob, ad libitum fed, day 0, 1 mg/day, 10 days, gavage in Intravail",35.5 ± 0.8 g
same,reduction of body weight gain,male C57BL/6J ob/ob mice; [8],11.6%
same,reduction of food intake,male C57BL/6J ob/ob mice; [8],16.5%
same,reduction of serum glucose,male C57BL/6J ob/ob mice; [8],24.4%
same,reduction of water intake,male C57BL/6J ob/ob mice; [8],22.4%
same,toxic side effects (words),[3],lack of toxicity
same,toxic side effects (words),[3]; listed as [D-Leu-4]-OB3,no obvious toxic side effects have ever been observed
